Data published in patent EP0528583A1, “Isolation and structure of the cell growth inhibitory cycloheptapeptide axinastatin 1” (ARIZONA BOARD OF REGENTS, priority 1991, dated 1993).
Residues, ends and D or L forms follow the SMILES beside them.

Columns and labels:
[1] = tested on: NCI murine P388 lymphocytic leukemia cell line; experiment: P388 (PS system) lymphocytic leukemia cell growth inhibition in culture, NCI protocol; type: cell-based; conditions: concentration required to inhibit growth of tumor cells in culture by 50 percent
Excerpt: (§1) The isolation and purification methods chosen can be monitored at each step by performing in-vitro and/or in-vivo antitumor tests as described by R. I. Geran, N.H. Greenberg, M. M. MacDonald, A.M. Schumacher and B. S. Abbot in Cancer Chemotherapy Rep., Part 3, Vol 3: 1-103 (1972); and by Schmidt, J. M.; Pettit, G. R. in Experientia 1978, 34: 659-660. Such tests include the determination of the concentration of active material required to inhibit the growth of tumor cells in culture, (e.g. the concentration required to inhibit growth by 50 percent or the E.D.₅₀) and of the dose of active material required to prolong the life of mice bearing transplanted tumors ("life extension").

[2] = tested on: P388 lymphocytic leukemia; experiment: In vivo P388 (PS) lymphocytic leukemia life extension, NCI protocol; parameters: species or system mice; conditions: in vivo P388 lymphocytic leukemia system; dose not given
Excerpt: as §1

CC(C)[C@@H]1NC(=O)[C@H](Cc2ccccc2)NC(=O)[C@@H]2CCCN2C(=O)[C@H](CC(N)=O)NC(=O)[C@H](C(C)C)NC(=O)[C@@H]2CCCN2C(=O)[C@H](C(C)C)NC1=O [axinastatin 1, cyclo (Asn-Pro-Phe-Val-Val-Pro-Val)] (cyclo(FVVPVNP))
PS ED₅₀ [1]: 0.21 µg/mL
life extension [2]: 20%
